Measurements published in publication PMC6342556 (ACS chemical neuroscience, 2018).

Molecular target: serotonin transporter (hSERT) (Homo sapiens, UniProt P31645)
Assay: fluorometric uptake
Format: cell-based

serotonin transporter (hSERT), sequence (P31645 whole entry): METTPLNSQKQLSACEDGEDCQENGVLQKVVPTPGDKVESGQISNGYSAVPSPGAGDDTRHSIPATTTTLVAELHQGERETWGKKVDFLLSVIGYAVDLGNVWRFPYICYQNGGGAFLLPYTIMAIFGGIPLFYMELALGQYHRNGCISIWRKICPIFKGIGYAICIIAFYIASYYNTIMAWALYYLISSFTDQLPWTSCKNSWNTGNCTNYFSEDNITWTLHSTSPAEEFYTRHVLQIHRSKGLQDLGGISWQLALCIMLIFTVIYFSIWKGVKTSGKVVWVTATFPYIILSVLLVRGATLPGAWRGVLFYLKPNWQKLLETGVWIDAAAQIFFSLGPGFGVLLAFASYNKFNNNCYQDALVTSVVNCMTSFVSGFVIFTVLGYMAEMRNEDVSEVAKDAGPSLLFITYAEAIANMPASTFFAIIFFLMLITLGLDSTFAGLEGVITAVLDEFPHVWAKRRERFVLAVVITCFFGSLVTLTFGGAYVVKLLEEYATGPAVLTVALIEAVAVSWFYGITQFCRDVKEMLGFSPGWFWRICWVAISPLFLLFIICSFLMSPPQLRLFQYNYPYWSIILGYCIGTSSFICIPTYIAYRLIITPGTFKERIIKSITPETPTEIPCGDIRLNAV

NCCc1ccc2[nH]c3ccccc3c(=O)c2c1 [FFN54]
fluorometric uptake (5 μM) in hSERT-HEK cells with and without imipramine; S/B =: FFN54 showed hSERT-dependent cell uptake in a multi-well fluorometric assay using hSERT-transfected human kidney cells
